This passage reports remaining binding results from patent US20240254103A9, “NOVEL PYRIMIDINE DERIVATIVE, AND COMPOSITION FOR PREVENTING OR TREATING NEURODEGENERATIVE DISEASES AND CANCER, COMPRISING SAME” (WHAN IN PHARMACEUTICAL CO., LTD., priority 2020, published 2024).

Bounds are passed on as bounds.

The target in experiment [1] is T1, wild-type LRRK2 (Homo sapiens, UniProt Q5S007).
T1 construct: DNA tag for qPCR detection (not a peptide; the protein part that carries it is not described); made in house; host or cells: HEK 293 cells (the same paragraph also describes T7 phage grown in E. coli BL21)
T1 sequence (Q5S007 970-2527): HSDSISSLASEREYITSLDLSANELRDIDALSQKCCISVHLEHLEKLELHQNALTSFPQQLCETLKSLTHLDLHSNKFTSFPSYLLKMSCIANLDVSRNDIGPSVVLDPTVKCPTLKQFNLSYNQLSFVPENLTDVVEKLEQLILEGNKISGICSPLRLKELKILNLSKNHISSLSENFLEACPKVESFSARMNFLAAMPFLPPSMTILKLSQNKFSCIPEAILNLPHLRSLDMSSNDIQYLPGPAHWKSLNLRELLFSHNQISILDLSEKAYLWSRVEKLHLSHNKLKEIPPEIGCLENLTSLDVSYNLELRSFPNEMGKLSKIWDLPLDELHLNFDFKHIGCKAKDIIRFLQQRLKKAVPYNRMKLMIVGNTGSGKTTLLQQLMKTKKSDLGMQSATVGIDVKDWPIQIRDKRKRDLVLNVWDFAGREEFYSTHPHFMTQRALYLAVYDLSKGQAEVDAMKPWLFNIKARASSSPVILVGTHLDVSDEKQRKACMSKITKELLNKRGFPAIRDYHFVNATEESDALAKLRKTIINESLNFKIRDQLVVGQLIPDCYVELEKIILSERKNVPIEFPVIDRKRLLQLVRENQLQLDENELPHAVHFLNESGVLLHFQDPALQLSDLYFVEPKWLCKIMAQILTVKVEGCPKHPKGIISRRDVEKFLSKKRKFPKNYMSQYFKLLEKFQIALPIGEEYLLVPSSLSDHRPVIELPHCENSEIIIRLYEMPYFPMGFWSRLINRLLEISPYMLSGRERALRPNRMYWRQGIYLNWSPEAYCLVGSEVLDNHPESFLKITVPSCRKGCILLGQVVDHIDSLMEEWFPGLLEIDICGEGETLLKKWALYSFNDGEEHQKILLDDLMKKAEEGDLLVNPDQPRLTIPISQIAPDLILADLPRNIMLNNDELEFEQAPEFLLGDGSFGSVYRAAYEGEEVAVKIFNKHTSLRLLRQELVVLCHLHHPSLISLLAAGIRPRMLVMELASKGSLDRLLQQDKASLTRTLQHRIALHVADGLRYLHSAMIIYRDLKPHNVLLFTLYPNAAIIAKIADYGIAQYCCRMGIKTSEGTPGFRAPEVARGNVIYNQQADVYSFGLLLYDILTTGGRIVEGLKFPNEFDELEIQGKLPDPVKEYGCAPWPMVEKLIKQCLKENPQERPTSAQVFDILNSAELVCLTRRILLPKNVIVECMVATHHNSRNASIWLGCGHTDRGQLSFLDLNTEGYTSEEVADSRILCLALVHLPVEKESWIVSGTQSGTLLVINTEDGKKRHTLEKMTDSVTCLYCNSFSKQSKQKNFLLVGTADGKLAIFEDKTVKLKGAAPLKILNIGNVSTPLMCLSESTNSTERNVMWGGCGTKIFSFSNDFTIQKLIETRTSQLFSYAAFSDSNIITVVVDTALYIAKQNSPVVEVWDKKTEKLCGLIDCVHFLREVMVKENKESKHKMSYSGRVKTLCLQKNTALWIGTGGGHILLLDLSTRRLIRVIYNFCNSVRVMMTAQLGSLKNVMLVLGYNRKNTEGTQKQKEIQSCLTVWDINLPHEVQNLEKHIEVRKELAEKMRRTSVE
As to the kind of experiment: Inhibitory activity against LRRK2: competition binding to ligand-affinity beads, DNA-tagged kinase quantitated by qPCR. Conditions: % of ctrl; for remaining binding at 0.1 µM: 100 nM compound, read-out: Remaining kinase activity(%) at 100 nM LRRK2(WT); for remaining binding at 0.01 µM: 10 nM compound, read-out: LRRK2(WT) Remaining kinase activity(%) at 10 nM; for remaining binding at 0.05 µM: 50 nM compound, read-out: LRRK2(WT) Remaining kinase activity(%) at 50 nM. The gist of the method:
(§1)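 Human LRRK2 H970–E2527, wild type or G2019S, was expressed as DNA-tagged kinase (T7 phage in E. coli or HEK293) and competed for 1 h against a biotinylated ligand on streptavidin beads. Bound kinase was eluted with 0.5 µM free ligand and quantified by qPCR. Values are % of control at 100 nM (both forms) and at 10 and 50 nM (wild type).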

Experiment [2] addresses T2, mutant LRRK2 (G2019S) (Homo sapiens, UniProt Q5S007, G2019S).
T2 construct: DNA tag for qPCR detection (not a peptide; the protein part that carries it is not described); made in house; host or cells: HEK 293 cells (the same paragraph also describes T7 phage grown in E. coli BL21)
The experiment is described as above. Conditions: 100 nM compound; % of ctrl; read-out: Remaining kinase activity(%) at 100 nM LRRK2(G2019Smutant). In short, it runs like this:
as §1

T2 sequence (Q5S007 970-2527 G2019S): as the sequence (Q5S007 970-2527) above, with G1050S counted along it

`COc1cc(C(=O)N2CCOCC2)ccc1Nc1ncc(Cl)c(-c2ccccc2)n1` [Comparative Compound 1, (4-((5-chloro-4-phenylpyrimidin-2-yl)amino)-3-methoxyphenyl)(morpholino)methanone, reference compound]: the remaining binding at 0.1 µM in experiment [1] and in experiment [2] was at least 50% each time.
As to `COc1cc(C(=O)N2CCOCC2)ccc1Nc1ncc(Cl)c(-c2cccnc2)n1` [Comparative Compound 2, (4-((5-chloro-4-(pyridin-3-yl)pyrimidin-2-yl)amino)-3-methoxyphenyl) (morpholino)methanone, reference compound], the remaining binding at 0.1 µM in experiment [1] and in experiment [2] was at least 50% throughout.
Turning to `COc1cc(C(=O)N2CCOCC2)ccc1Nc1ncc(Cl)c(-c2cccc([N+](=O)[O-])c2)n1` [Comparative Compound 3, (4-((5-chloro-4-(3-nitrophenyl)pyrimidin-2-yl)amino) -3-methoxyphenyl)(morpholino)methanone, reference compound], the remaining binding at 0.1 µM in experiment [1] and in experiment [2] was at least 50% in each case.
Turning to `COc1cc(C(=O)N2CCOCC2)ccc1Nc1ncc(Cl)c(-c2cnn(C)c2)n1` [Compound 1, (4-((5-chloro-4-(1-methyl-1H-pyrazol-4-yl)pyrimidin-2-yl)amino)-3-methoxyphenyl)(morpholino)methanone], the remaining binding at 0.1 µM in experiment [1] and in experiment [2] was under 30% each time.
With `COc1cc(C(=O)N2CCC(N3CCOCC3)CC2)ccc1Nc1ncc(Cl)c(-c2cnn(C)c2)n1` [Compound 2, (4-((5-chloro-4-(1-methyl-1H-pyrazol-4-yl)pyrimidin-2-yl)amino)-3-methoxyphenyl) (4-morpholinopiperidin-1-yl)methanone], the remaining binding at 0.1 µM in experiment [1] and in experiment [2] was under 10% each time.
Consider `COc1cc(C(=O)N2CCOCC2)ccc1Nc1ncc(Cl)c(-c2cnn(CCO)c2)n1` [Compound 4, (4-((5-chloro-4-(1-(2-hydroxyethyl)-1H-pyrazol-4-yl)pyrimidin-2-yl)amino)-3-methoxyphenyl)(morpholino)methanone], for which the remaining binding at 0.1 µM in experiment [1] and in experiment [2] was under 30% each time.
As for `COc1cc(C(=O)N2CCOCC2)ccc1Nc1ncc(Cl)c(-c2cnn(CCC#N)c2)n1` [Compound 5, 3-(4-(5-chloro-2-((2-methoxy-4-(morpholine-4-carbonyl)phenyl)amino)pyrimidin-4-yl)-1H-pyrazol-1-yl)propanenitrile], the remaining binding at 0.1 µM in experiment [1] and in experiment [2] was under 10% throughout.
For the compound `COc1cc(C(=O)N2CCOCC2)ccc1Nc1ncc(Cl)c(-c2cnn(CC#N)c2)n1` [Compound 6, 2-(4-(5-chloro-2-((2-methoxy-4-(morpholine-4-carbonyl)phenyl)amino)pyrimidin-4-yl)-1H-pyrazol-1-yl)acetonitrile], the results for the remaining binding at 0.1 µM in experiment [1] and in experiment [2] were under 50% and under 30%, respectively.
For `COc1cc(C(=O)N2CCOCC2)ccc1Nc1ncc(Cl)c(-c2cnn(C(C)CC#N)c2)n1` (centres unmarked) [Compound 7, 3-(4-(5-chloro-2-((2-methoxy-4-(morpholine-4-carbonyl)phenyl)amino)pyrimidin-4-yl)-1H-pyrazol-1-yl)butanenitrile], the remaining binding at 0.1 µM in experiment [1] and in experiment [2] was under 10% in each case.
As to `COc1cc(C(=O)N2CCOCC2)ccc1Nc1ncc(Cl)c(-c2cnn(S(C)(=O)=O)c2)n1` [Compound 10, (4-((5-chloro-4-(1-(methylsulfonyl)-1H-pyrazol-4-yl)pyrimidin-2-yl)amino)-3-methoxyphenyl)(morpholino)methanone], the remaining binding at 0.1 µM in experiment [1] is under 30%; in experiment [2], under 10%.
`COc1cc(C(=O)N2CCOCC2)ccc1Nc1ncc(Cl)c(-c2cnn(C(F)F)c2)n1` [Compound 15, (4-((5-chloro-4-(1-(difluoromethyl)-1H-pyrazol-4-yl)pyrimidin-2-yl)amino)-3-methoxyphenyl)(morpholino)methanone]: the remaining binding at 0.1 µM in experiment [1] is under 50%; in experiment [2], under 30%.
In the case of `COCn1cc(-c2nc(Nc3ccc(C(=O)N4CCOCC4)cc3OC)ncc2Cl)cn1` [Compound 16, (4-((5-chloro-4-(1-(methoxymethyl)-1H-pyrazol-4-yl)pyrimidin-2-yl)amino)-3-methoxyphenyl)(morpholino)methanone], the results for the remaining binding at 0.1 µM in experiment [1] and in experiment [2] were under 30% and under 10%, respectively.
For `COc1ccc(Cn2cc(-c3nc(Nc4ccc(C(=O)N5CCOCC5)cc4OC)ncc3Cl)cn2)cc1` [Compound 17, (4-((5-chloro-4-(1-(4-methoxybenzyl)-1H-pyrazol-4-yl)pyrimidin-2-yl)amino)-3-methoxyphenyl)(morpholino)methanone], the remaining binding at 0.1 µM was under 30% in experiment [1] and under 50% in experiment [2].
Regarding `COc1cc(C(=O)N2CCOCC2)ccc1Nc1ncc(Cl)c(-c2cn[nH]c2)n1` [Compound 18, (4-((5-chloro-4-(1H-pyrazol-4-yl)pyrimidin-2-yl)amino)-3-methoxyphenyl)(morpholino)methanone], the remaining binding at 0.1 µM in experiment [1] and in experiment [2] was under 30% each time.
In the case of `COc1cc(C(=O)N2CCC(N3CCN(C)CC3)CC2)ccc1Nc1ncc(Cl)c(-c2cnn(C)c2)n1` [Compound 19, (4-((5-chloro-4-(1-methyl-1H-pyrazol-4-yl)pyrimidin-2-yl)amino)-3-methoxyphenyl)(4-(4-methylpiperazin-1-yl)piperidin-1-yl)methanone], the remaining binding at 0.1 µM in experiment [1] and in experiment [2] was under 10% throughout.
As for `COc1cc(C(=O)N2CCOCC2)ccc1Nc1ncc(Cl)c(-c2cnn(C3CCOCC3)c2)n1` [Compound 20, (4-((5-chloro-4-(1-(tetrahydro-2H-pyran-4-yl)-1H-pyrazol-4-yl)pyrimidin-2-yl)amino)-3-methoxyphenyl)(morpholino)methanone], the remaining binding at 0.1 µM in experiment [1] and in experiment [2] was under 10% throughout.
As for `COCCN(C)C(=O)c1ccc(Nc2ncc(Cl)c(-c3cnn(C)c3)n2)c(OC)c1` [Compound 21, 4-((5-chloro-4-(1-methyl-1H-pyrazol-4-yl)pyrimidin-2-yl)amino)-3-methoxy-N-(2-methoxyethyl)-N-methylbenzamide], the remaining binding at 0.1 µM in experiment [1] and in experiment [2] was under 30% each time.
For `COc1cc(C(=O)N2CCCC2)ccc1Nc1ncc(Cl)c(-c2cnn(C)c2)n1` [Compound 22, (4-((5-chloro-4-(1-methyl-1H-pyrazol-4-yl)pyrimidin-2-yl)amino)-3-methoxyphenyl)(pyrrolidin-1-yl)methanone], the figures for the remaining binding at 0.1 µM in experiment [1] and in experiment [2] were under 30% and under 50%, respectively.
As for `CCN(CCOC)C(=O)c1ccc(Nc2ncc(Cl)c(-c3cnn(C)c3)n2)c(OC)c1` [Compound 23, 4-((5-chloro-4-(1-methyl-1H-pyrazol-4-yl)pyrimidin-2-yl)amino)-N-ethyl-3-methoxy-N-(2-methoxyethyl)benzamide], the remaining binding at 0.1 µM in experiment [1] and in experiment [2] was under 50% each time.
For the compound `COc1cc(C(=O)NC(C)(C)CO)ccc1Nc1ncc(Cl)c(-c2cnn(C)c2)n1` [Compound 24, 4-((5-chloro-4-(1-methyl-1H-pyrazol-4-yl)pyrimidin-2-yl)amino)-N-(1-hydroxy-2-methylpropan-2-yl)-3-methoxybenzamide], the remaining binding at 0.1 µM in experiment [1] was under 30%; in experiment [2], under 50%.
For `COc1cc(C(=O)NCc2cccc(N)c2)ccc1Nc1ncc(Cl)c(-c2cnn(C(C)C)c2)n1` [Compound 205, N-(3-aminobenzyl)-4-((5-chloro-4-(1-isopropyl-1H-pyrazol-4-yl)pyrimidin-2-yl)amino)-3-methoxybenzamide], in experiment [1], the remaining binding at 0.01 µM was at least 50% and the remaining binding at 0.05 µM is under 50%.
On the same counts, the results for `CCN(C)C1CCN(C(=O)c2ccc(Nc3ncc(Cl)c(-c4cnn(C(C)C)c4)n3)c(OC)c2)CC1` [Compound 210, (4-((5-chloro-4-(1-isopropyl-1H-pyrazol-4-yl)pyrimidin-2-yl)amino)-3-methoxyphenyl)(4-(ethyl(methyl)amino)piperidin-1-yl)methanone] are under 50% and under 10%.
Take `COc1cc(C(=O)Nc2ccc3c(c2)CCN3C(C)=O)ccc1Nc1ncc(Cl)c(-c2cnn(C(C)C)c2)n1` [Compound 212, N-(1-acetylindolin-5-yl)-4-((5-chloro-4-(1-isopropyl-1H-pyrazol-4-yl)pyrimidin-2-yl)amino)-3-methoxybenzamide]: in experiment [1], the remaining binding at 0.01 µM is at least 50% and the remaining binding at 0.05 µM is under 50%.
As for `COc1cc(C(=O)N2CCC(N3CCCC3)CC2)ccc1Nc1ncc(Cl)c(-c2cnn(C(C)C)c2)n1` [Compound 216, (4-((5-chloro-4-(1-isopropyl-1H-pyrazol-4-yl)pyrimidin-2-yl)amino)-3-methoxyphenyl)(4-(pyrrolidin-1-yl)piperidin-1-yl)methanone], in experiment [1], the remaining binding at 0.01 µM is under 50% and the remaining binding at 0.05 µM is under 10%.
`COc1cc(C(=O)N2CCC(N3CCCCC3)CC2)ccc1Nc1ncc(Cl)c(-c2cnn(C(C)C)c2)n1` [Compound 217, [1,4′-bipiperidin]-1′-yl(4-((5-chloro-4-(1-isopropyl-1H-pyrazol-4-yl)pyrimidin-2-yl)amino)-3-methoxyphenyl)methanone]: in experiment [1], the remaining binding at 0.01 µM is under 30% and the remaining binding at 0.05 µM is under 10%.
